“And” between values parts separate entries of the source, which are not always exact repeats. Equal values may be shown once. Numbers after ± are expanded uncertainties.
Conditions: 100 kPa, Liquid; for viscosity: Concentric cylinders viscometry; for mass density: Vibrating tube method

Row | Compound | viscosity (283.15 K) | mass density (283.15 K) [kg/m3] | viscosity (288.15 K) | mass density (288.15 K) [kg/m3] | viscosity (293.15 K) | mass density (293.15 K) [kg/m3] | viscosity (298.15 K) | mass density (298.15 K) [kg/m3] | viscosity (303.15 K) | mass density (303.15 K) [kg/m3] | viscosity (308.15 K) | mass density (308.15 K) [kg/m3] | viscosity (313.15 K) | mass density (313.15 K) | viscosity (318.15 K) | mass density (318.15 K) | viscosity (323.15 K) | mass density (323.15 K) | viscosity (328.15 K) | mass density (328.15 K) | further results
1 | CCCCn1cc[n+](C)c1.F[B-](F)(F)F [1-butyl-3-methylimidazolium tetrafluoroborate] | 264.99 ± 14 mPa·s | 1212.5 ± 0.6 | 192.43 ± 10 mPa·s | 1208.8 ± 0.6 | 143.08 ± 7.4 mPa·s | 1205.2 ± 0.6 | 108.74 ± 5.6 mPa·s | 1201.6 ± 0.6 | 84.28 ± 4.3 mPa·s | 1198 ± 0.6 | 66.52 ± 3.4 mPa·s | 1194.5 ± 0.6 | 53.37 ± 2.7 mPa·s | 1190.9 ± 0.6 kg/m3 | 43.47 ± 2.2 mPa·s | 1187.4 ± 0.6 kg/m3 | 35.89 ± 1.8 mPa·s | 1184 ± 0.6 kg/m3 | 30.01 ± 1.5 mPa·s | 1180.5 ± 0.6 kg/m3 | viscosity (333.15 K): 25.38 ± 1.3 mPa·s; mass density (333.15 K): 1177 ± 0.6 kg/m3; viscosity (338.15 K): 21.68 ± 1.1 mPa·s; mass density (338.15 K): 1173.6 ± 0.6 kg/m3; viscosity (343.15 K): 18.7 ± 0.94 mPa·s; mass density (343.15 K): 1170.2 ± 0.6 kg/m3; viscosity (348.15 K): 16.26 ± 0.82 mPa·s; mass density (348.15 K): 1166.8 ± 0.6 kg/m3; viscosity (353.15 K): 14.26 ± 0.72 mPa·s; mass density (353.15 K): 1163.4 ± 0.6 kg/m3; viscosity (358.15 K): 12.59 ± 0.63 mPa·s; mass density (358.15 K): 1160.1 ± 0.6 kg/m3; viscosity (363.15 K): 11.2 ± 0.56 mPa·s; mass density (363.15 K): 1156.8 ± 0.6 kg/m3
2 | CC(=O)[O-].CCCCn1cc[n+](C)c1 [1-butyl-3-methylimidazolium acetate] | 1013.4 ± 64 mPa·s | 1062.7 ± 1 | 645.6 ± 39 mPa·s | 1059.4 ± 1 | 421.35 ± 24 mPa·s | 1056 ± 1 | 292.57 ± 16 mPa·s | 1052.8 ± 1 | 206.68 ± 11 mPa·s | 1049.7 ± 1 | 150.08 ± 7.9 mPa·s | 1046.6 ± 1 | 110.79 ± 5.8 mPa·s | 1043.5 ± 1 kg/m3 | 85.03 ± 4.4 mPa·s | 1040.5 ± 1 kg/m3 | 66.07 ± 3.4 mPa·s | 1037.5 ± 1 kg/m3 | 52.29 ± 2.7 mPa·s | 1034.5 ± 1 kg/m3 | viscosity (333.15 K): 42.29 ± 2.2 mPa·s; mass density (333.15 K): 1031.5 ± 1 kg/m3; viscosity (338.15 K): 34.38 ± 1.8 mPa·s; mass density (338.15 K): 1028.5 ± 1 kg/m3; viscosity (343.15 K): 28.48 ± 1.5 mPa·s; mass density (343.15 K): 1025.6 ± 1 kg/m3; viscosity (348.15 K): 23.88 ± 1.2 mPa·s; mass density (348.15 K): 1022.6 ± 1 kg/m3; viscosity (353.15 K): 20.63 ± 1.1 mPa·s; mass density (353.15 K): 1019.7 ± 0.9 kg/m3; viscosity (358.15 K): 17.35 ± 0.89 mPa·s; mass density (358.15 K): 1016.7 ± 0.9 kg/m3; viscosity (363.15 K): 15 ± 0.77 mPa·s; mass density (363.15 K): 1013.9 ± 0.9 kg/m3
3 | CCCC[n+]1ccn(C)c1.O=S(=O)([N-]S(=O)(=O)C(F)(F)F)C(F)(F)F | 106.78 ± 5.5 mPa·s and 106.77 ± 5.5 mPa·s | 1451.8 ± 0.8 | 82.14 ± 4.2 mPa·s and 82.16 ± 4.2 mPa·s | 1446.9 ± 0.8 | 66.36 ± 3.3 mPa·s and 64.53 ± 3.3 mPa·s | 1442.1 ± 0.8 | 51.58 ± 2.6 mPa·s and 51.6 ± 2.6 mPa·s | 1437.2 ± 0.8 | 41.94 ± 2.1 mPa·s and 41.93 ± 2.1 mPa·s | 1432.4 ± 0.7 | 34.6 ± 1.7 mPa·s and 34.59 ± 1.7 mPa·s | 1427.6 ± 0.7 | 29.48 ± 1.5 mPa·s and 28.91 ± 1.5 mPa·s | 1422.8 ± 0.7 kg/m3 and 1422.9 ± 0.7 kg/m3 | 24.47 ± 1.2 mPa·s and 24.46 ± 1.2 mPa·s | 1418.1 ± 0.7 kg/m3 and 1418.2 ± 0.7 kg/m3 | 20.93 ± 1.1 mPa·s and 20.91 ± 1.1 mPa·s | 1413.4 ± 0.7 kg/m3 and 1413.5 ± 0.7 kg/m3 | 18.07 ± 0.91 mPa·s and 18.05 ± 0.91 mPa·s | 1408.7 ± 0.7 kg/m3 and 1408.8 ± 0.7 kg/m3 | viscosity (333.15 K): 15.95 ± 0.8 mPa·s and 15.72 ± 0.79 mPa·s; mass density (333.15 K): 1404.1 ± 0.7 kg/m3 and 1404 ± 0.7 kg/m3; viscosity (338.15 K): 13.83 ± 0.7 mPa·s and 13.8 ± 0.69 mPa·s; mass density (338.15 K): 1399.4 ± 0.7 kg/m3 and 1399.3 ± 0.7 kg/m3; viscosity (343.15 K): 12.23 ± 0.62 mPa·s and 12.2 ± 0.61 mPa·s; mass density (343.15 K): 1394.8 ± 0.7 kg/m3 and 1394.7 ± 0.7 kg/m3; viscosity (348.15 K): 10.9 ± 0.55 mPa·s and 10.86 ± 0.55 mPa·s; mass density (348.15 K): 1390.2 ± 0.7 kg/m3 and 1390.1 ± 0.7 kg/m3; viscosity (353.15 K): 9.985 ± 0.5 mPa·s and 9.72 ± 0.49 mPa·s; mass density (353.15 K): 1385.6 ± 0.7 kg/m3 and 1385.5 ± 0.7 kg/m3; viscosity (358.15 K): 8.806 ± 0.44 mPa·s and 8.754 ± 0.44 mPa·s; mass density (358.15 K): 1381.1 ± 0.7 kg/m3 and 1381 ± 0.7 kg/m3; viscosity (363.15 K): 7.98 ± 0.4 mPa·s and 7.926 ± 0.4 mPa·s; mass density (363.15 K): 1376.6 ± 0.7 kg/m3 and 1376.4 ± 0.7 kg/m3
